The data set relates to Rat Lung. The settings on record: in vivo, iv.

The values that follow come from patent publication US20070160531A1 (priority 1995, published 2007).

For ^3H-daunomycin, the “% in lung (total drug in the lung as a percentage of the original dose)” value was determined as 0.65% and the “% inj/g tissue” value was 0.63 % inj/g.
